Results on 31 molecules are retold here after ChEMBL document CHEMBL6074720, “Dihydrofolate reductase inhibitory potential of 1H-indole-based-meldrum linked 1H-1,2,3-triazoles as new anticancer derivatives: In-vitro and in-silico studies” (Eur J Med Chem, 2025).

The source made the active and inactive calls. No cut-off for these calls is given here.

The target of assay [1] is T1, Dihydrofolate reductase (Homo sapiens) (UniProt P00374).
T1 sequence (whole entry): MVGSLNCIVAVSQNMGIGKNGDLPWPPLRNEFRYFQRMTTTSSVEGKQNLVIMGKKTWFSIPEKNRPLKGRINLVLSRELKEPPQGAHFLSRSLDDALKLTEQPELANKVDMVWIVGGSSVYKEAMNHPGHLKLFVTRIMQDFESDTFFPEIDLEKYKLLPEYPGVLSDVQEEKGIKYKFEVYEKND
The assay is described as follows: Inhibition of DHFR (unknown origin) using dihydro folic acid as substrate at 0.5 mM preincubated with compound for 5 mins followed by substrate addition and measured after 30 mins in presence of NADPH by absorbance based assay relative to control. The note with it: time 35.0 min.

The next assay concerns the target T2, Dihydrofolate reductase (Homo sapiens, UniProt P00374).
T2 sequence (P00374 whole entry): T1 sequence (whole entry)
The assay is described as follows: (§1) Inhibition of DHFR (unknown origin) using dihydro folic acid as substrate preincubated with compound for 5 mins followed by substrate addition and measured after 30 mins in presence of NADPH by absorbance based assay.

In assay [2] the target is T1, Dihydrofolate reductase (Homo sapiens). The description is as §1. The note with it: time 35.0 min.

The inhibition is how much of the control response was suppressed. The IC50 is the concentration at which inhibition is half-maximal. Regarding `CC1(C)OC(=O)C(Cc2cn(-c3ccc(F)cc3)nn2)(Cc2c[nH]c3ccccc23)C(=O)O1`, the inhibition in assay [1] was 91.7%. For the same molecule, on Dihydrofolate reductase, the IC50 was found to be 5.1 µM.
`CC1(C)OC(=O)C(Cc2cn(-c3ccc(C(F)(F)F)cc3)nn2)(Cc2cn(Cc3ccc(C#N)cc3)c3ccccc23)C(=O)O1`: the inhibition in assay [1] was found to be 91.8%. In addition, the 50% inhibitory concentration (IC50) on Dihydrofolate reductase is 8.71 µM.
`C#CCC1(Cc2c[nH]c3ccccc23)C(=O)OC(C)(C)OC1=O`: the inhibition in assay [1] amounted to 40.2%. Besides, the inhibition entry in assay [2] is “inactive”.
With `CC1(C)OC(=O)C(Cc2cn(-c3ccc(C(F)(F)F)cc3)nn2)(Cc2c[nH]c3ccccc23)C(=O)O1`, the inhibition in assay [1] is 91.3%. For the same molecule, at Dihydrofolate reductase, the IC50 is 10.1 µM.
For `CC1(C)OC(=O)C(Cc2cn(-c3ccc(F)cc3)nn2)(Cc2cn(Cc3ccc(C#N)cc3)c3ccccc23)C(=O)O1`, the inhibition in assay [1] came out at 91.7%. The IC50 on Dihydrofolate reductase was 6.15 µM.
With `COc1ccc(OC(=O)C(Cc2cn(-c3ccc(F)cc3)nn2)Cc2cn(Cc3ccc(C#N)cc3)c3ccccc23)cc1` (configuration not stated), the inhibition in assay [1] worked out at 90.9%. Also, the 50% inhibitory concentration (IC50) at Dihydrofolate reductase was 16.1 µM.
As for `COc1ccc(-n2cc(CC3(Cc4c[nH]c5ccccc45)C(=O)OC(C)(C)OC3=O)nn2)cc1`, in assay [1], the inhibition was found to be 90.9%. Moreover, the IC50 at Dihydrofolate reductase was found to be 4.36 µM.
In the case of `Cc1ccccc1-n1cc(CC2(Cc3cn(CCC#N)c4ccccc34)C(=O)OC(C)(C)OC2=O)nn1`, in assay [1], the inhibition worked out at 89.4%. Moreover, on Dihydrofolate reductase, the IC50 is 18.3 µM.
For the molecule `COc1ccc(-n2cc(CC3(Cc4cn(Cc5ccc(C#N)cc5)c5ccccc45)C(=O)OC(C)(C)OC3=O)nn2)cc1`, the inhibition in assay [1] is 92.3%. On Dihydrofolate reductase, the IC50 stood at 3.48 µM.
`C#CCC1(Cc2cn(CCC#N)c3ccccc23)C(=O)OC(C)(C)OC1=O`: the inhibition in assay [1] is 46.2%. Besides, the inhibition entry in assay [2] is “inactive”.
Regarding `CC1(C)OC(=O)C(Cc2cn(-c3ccc(F)cc3)nn2)(Cc2cn(CCC#N)c3ccccc23)C(=O)O1`, the inhibition in assay [1] was determined as 92.5%. Besides, the 50% inhibitory concentration (IC50) at Dihydrofolate reductase worked out at 4.78 µM.
On to `CC1(C)OC(=O)C(Cc2cn(-c3ccccc3)nn2)(Cc2cn(Cc3ccc(C#N)cc3)c3ccccc23)C(=O)O1`, for which the inhibition in assay [1] came to 86.2%. The IC50 at Dihydrofolate reductase amounted to 30.4 µM.
For `CC1(C)OC(=O)C(Cc2cn(-c3ccccc3)nn2)(Cc2c[nH]c3ccccc23)C(=O)O1`, in that order: 89.7% and 23.8 µM.
For `CC1(C)OC(=O)C(Cc2cn(-c3ccc(Br)cc3)nn2)(Cc2c[nH]c3ccccc23)C(=O)O1`, in that order: 91.6% and 9.57 µM.
In the case of `N#CCCn1cc(C=O)c2ccccc21`, the inhibition in assay [1] turned out to be 24.8%. Besides, the inhibition entry in assay [2] was “inactive”.
Consider `CC1(C)OC(=O)C(=Cc2cn(CCC#N)c3ccccc23)C(=O)O1`, for which the inhibition in assay [1] was 35.3%. The inhibition result in assay [2] was “inactive”.
For the molecule `CC1(C)OC(=O)C(=Cc2cn(Cc3ccc(C#N)cc3)c3ccccc23)C(=O)O1`, in assay [1], the inhibition was determined as 30.2%. For the same molecule, the inhibition entry in assay [2] was “inactive”.
For the molecule `Cc1ccccc1-n1cc(CC2(Cc3c[nH]c4ccccc34)C(=O)OC(C)(C)OC2=O)nn1`, the inhibition in assay [1] was 90.7%. Moreover, the 50% inhibitory concentration (IC50) at Dihydrofolate reductase is 19.6 µM.
Regarding `C#CCC1(Cc2cn(Cc3ccc(C#N)cc3)c3ccccc23)C(=O)OC(C)(C)OC1=O`, in assay [1], the inhibition worked out at 41.4%. The inhibition entry in assay [2] was “inactive”.
For `CC1(C)OC(=O)C(Cc2cn(Cc3ccc(C#N)cc3)c3ccccc23)C(=O)O1`, in that order: 25.5% and “inactive”.
For the molecule `CC1(C)OC(=O)C(Cc2cn(-c3ccc(Br)cc3)nn2)(Cc2cn(CCC#N)c3ccccc23)C(=O)O1`, in assay [1], the inhibition worked out at 91.6%. The half-maximal inhibitory concentration (IC50) on Dihydrofolate reductase worked out at 11.3 µM.
In the case of `CC1(C)OC(=O)C(Cc2cn(CCC#N)c3ccccc23)C(=O)O1`, the inhibition in assay [1] is 38.9%. Besides, the inhibition result in assay [2] was “inactive”.
Consider `COc1ccc(-n2cc(CC3(Cc4cn(CCC#N)c5ccccc45)C(=O)OC(C)(C)OC3=O)nn2)cc1`, for which the inhibition in assay [1] turned out to be 91.8%. Also, on Dihydrofolate reductase, the 50% inhibitory concentration (IC50) came to 5.83 µM.
For `CC1(C)OC(=O)C(Cc2cn(-c3ccc(Br)cc3)nn2)(Cc2cn(Cc3ccc(C#N)cc3)c3ccccc23)C(=O)O1`, the inhibition in assay [1] was 91.5%. The IC50 on Dihydrofolate reductase was 9.1 µM.
`COc1ccc(OC(=O)C(Cc2cn(-c3ccc(F)cc3)nn2)Cc2cn(CCC#N)c3ccccc23)cc1` (configuration not stated): the inhibition in assay [1] worked out at 91.3%. In addition, at Dihydrofolate reductase, the half-inhibitory concentration (IC50) stood at 12.8 µM.
As for `CC1(C)OC(=O)C(Cc2c[nH]c3ccccc23)C(=O)O1`, in assay [1], the inhibition was 36.2%. Also, the inhibition result in assay [2] is “inactive”.
In the case of `COc1ccc(OC(=O)C(Cc2cn(-c3ccc(Br)cc3)nn2)Cc2cn(Cc3ccc(C#N)cc3)c3ccccc23)cc1` (configuration not stated), the inhibition in assay [1] was determined as 86.7%. Further, the IC50 at Dihydrofolate reductase was determined as 25.3 µM.
Consider `CC1(C)OC(=O)C(Cc2cn(-c3ccccc3)nn2)(Cc2cn(CCC#N)c3ccccc23)C(=O)O1`, for which, in assay [1], the inhibition stood at 87.3%. Further, the half-maximal inhibitory concentration (IC50) at Dihydrofolate reductase is 27.6 µM.
With `N#Cc1ccc(Cn2cc(C=O)c3ccccc32)cc1`, the inhibition in assay [1] is 25.2%. Further, the inhibition entry in assay [2] was “inactive”.
For the molecule `Cc1ccccc1-n1cc(CC2(Cc3cn(Cc4ccc(C#N)cc4)c4ccccc34)C(=O)OC(C)(C)OC2=O)nn1`, in assay [1], the inhibition was determined as 90.6%. In addition, the half-maximal inhibitory concentration (IC50) at Dihydrofolate reductase amounted to 14.5 µM.
Turning to `CC1(C)OC(=O)C(Cc2cn(-c3ccc(C(F)(F)F)cc3)nn2)(Cc2cn(CCC#N)c3ccccc23)C(=O)O1`, the inhibition in assay [1] was 90.5%. Further, the IC50 on Dihydrofolate reductase is 13.9 µM.
